For data set [1], the system named is Jurkat lymphocytes. The class given is cell-based. The method, then: Analysis of cytotoxicity of protein delivery.
To examine the toxicity of this metal acetate and protein delivery, cellular viability was examined by flow cytometry. In these experiments, Jurkat lymphocytes were treated with receptor 1 (10 μM, 1 h), followed by AcGFP(His)10 (3.2 μM), and Ni(OAc)2 (100 μM, 4 h) to enhance protein uptake by 600-fold. Cells were washed with disodium NTA to remove cell surface protein and were cultured for an additional 48 h. Cellular viability was determined by light scattering and staining the nuclei of membrane-compromised dead cells with the fluorophore propidium iodide. Under these conditions, 97% of the cells were viable, compared with 98.6% of untreated controls, and no effects on cellular morphology were observed. Other studies have similarly reported low toxicity of nickel salts at <160 μM in cell culture.^14 By enabling common oligohistidine affinity tags to function as cell penetrating peptides, synthetic receptor 1 provides a potentially versatile new probe of cellular biology.

Data set [2] concerns Jurkat lymphocytes. The data set can be described thus: Uptake of AcGFP-oligohistidine fusion proteins (flow cytometry). The class given is cell-based, human. The conditions noted are these: receptor 10 μM preloaded 1 h, protein 3.2 μM, Ni(OAc)2 100 μM. The method, then:
FIG. 25. Analysis of cellular uptake of His-tagged AcGFP proteins by flow cytometry. Each bar represents the average fluorescence of 10,000 cells. Unless otherwise noted, cellular plasma membranes of Jurkat lymphocytes were preloaded with receptor 1 (10 μM) for 1 h at 37° C., cells were washed with fresh media, and His-tagged AcGFP (3.2 μM)/metal diacetate solution (100 μM) was added for 4 h at 37° C. Prior to analysis, cells were washed with NTA (400 μM, 30 min) in PBS (pH 7.4) to remove bound surface protein. Panel A: Dose dependence of receptor-mediated uptake. Premix conditions: a solution containing receptor 1, Ni(OAc)2, and AcGFP(His)10 was added to cells for 4 h. Panel B: Dependence on [Ni(OAc)2]. Panel C: Omission control experiments. Panel D; Uptake of (His)6 and (His)10 fusion proteins promoted by different metal diacetates.
Preload conditions: To Jurkat lymphocytes (7×10^5) in RPMI media (0.5 mL) was added synthetic receptor 1 (typical final [Receptor 1]=10 μM) in DMSO (final [DMSO]=1%). These cells were incubated at 37° C. for 1 h to load the receptor into cellular plasma membranes. The cells were washed with RPMI media (0.5 mL) to remove unincorporated receptor/DMSO and resuspended in fresh media (87.6 μL). […]

Data set [3] has as its system mouse J-774 cells and human HeLa cells. Description: Flow cytometric analysis of cellular uptake of fluorescent vancomycin 2. The class given is cell-based. The method, then: FIG. 18. Flow cytometric analysis of cellular uptake of fluorescent vancomycin 2 promoted by synthetic receptor 3 and control compounds. Preload conditions: Receptor 3 or analogues (4, 5) were added to cells for 1 h to load the plasma membrane, cells were washed, and 2 (3 μM) was added for 4 h. Premix conditions: Receptor 3 or analogues (4, 5) were preequilibrated with 2 (3 μM) at 23° C. for 1 h followed by addition of this mixture to cells for 4 h.
The dose-dependent effectiveness of delivery of 2 into mouse J-774 cells and human HeLa cells mediated by […] was examined quantitatively by flow cytometry.
(In general: A flow cytometer gives signals particle by particle.)

“And” between values parts separate entries of the source, which are not always exact repeats. Identical values can stand only once.

Consider 2 compounds from patent publication US7947647B2, “Synthetic mimics of mammalian cell surface receptors: method and compositions” (The Penn State Research Foundation, priority 2004, dated 2011).

For `CC(C)CCC[C@@H](C)[C@H]1CC[C@H]2[C@@H]3CC=C4C[C@@H](NCCCCC(=O)NCCC(=O)NCCC(=O)NCCCCC(C(=O)O)N(CC(=O)O)CC(=O)O)CC[C@]4(C)[C@H]3CC[C@]12C` (stereo partly drawn) [receptor 1, 4-Carboxy-3-(carboxymethyl)-22-[(3β)-cholest-5-en-3-ylamino]-10,14,18-trioxo-3,9,13,17-tetraazadocosan-1-oic acid], the “effects on viability or cellular morphology” value in the data set on Jurkat lymphocytes [1] is given as “No significant effects on viability or cellular morphology were observed”. In addition, the cells viable with Jurkat lymphocytes [1] (human, 10 μM) stood at 97%. In addition, the “intracellular delivery of AcGFP(His)10 above basal levels of endocytosis” value in the data set on Jurkat lymphocytes [2] was > 600 fold and 600 fold.

For AcNH-D-Phe-D-Ala-CO2H, in data set [3], the “effect of soluble competitor on receptor-mediated ligand uptake” value is given as “blocked”.
